# Experimental data taken from paper PMC8421423, “Cellular model system to dissect the isoform-selectivity of Akt inhibitors” (Nature Communications, 2021).
# Values joined by “and” are separate entries in the source; they are usually repeats but may differ in a detail not shown here. Identical values can stand only once. Like-named read-outs stand apart in the source and are kept apart here.
# How the values were obtained:
# Akt1 = Akt1 (Homo sapiens, UniProt P31749); assay: Cellular thermal shift assay (CETSA) in PANC1 cells; format: cell-based; parameters: purchased ProQinase #1379-0000-2; settings: CETSA PANC1, 2.5 µM, temperature 79.9
# Chain of Akt1 (P31749 whole entry): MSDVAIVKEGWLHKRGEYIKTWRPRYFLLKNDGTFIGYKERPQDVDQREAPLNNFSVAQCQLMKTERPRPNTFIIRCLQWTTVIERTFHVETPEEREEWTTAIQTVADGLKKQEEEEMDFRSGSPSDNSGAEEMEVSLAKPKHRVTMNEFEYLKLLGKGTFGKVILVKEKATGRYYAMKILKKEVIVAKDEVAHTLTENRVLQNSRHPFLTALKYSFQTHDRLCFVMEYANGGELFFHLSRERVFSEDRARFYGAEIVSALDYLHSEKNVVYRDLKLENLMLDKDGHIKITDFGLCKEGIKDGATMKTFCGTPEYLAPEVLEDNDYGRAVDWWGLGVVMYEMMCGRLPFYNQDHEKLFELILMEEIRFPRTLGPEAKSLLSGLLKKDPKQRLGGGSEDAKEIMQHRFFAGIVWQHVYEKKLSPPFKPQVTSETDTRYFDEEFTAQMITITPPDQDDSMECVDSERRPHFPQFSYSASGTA
# Procedure: (§1) Cells were seeded into 100 mm tissue culture plates (Sarstedt) (PANC1: 10^6 cells). After 24 h incubation, cells were treated with 1 µM of inhibitors or DMSO and were incubated for 4.5 h. Cells were washed twice with ice-cold PBS and then suspended in 1 mL PBS. Cells were collected and separated into equal volumes (100 µL). The aliquots were treated individually with different temperatures for 3 min, followed by a 3 min incubation at room temperature. Cell lysis was initiated by adding 100 µL RIPA buffer and 2 freeze-thaw cycles in liquid nitrogen. The lysates were centrifuged at 21,130×g for 20 min at room temperature. The supernatants were transferred into fresh, pre-cooled microcentrifuge tubes, and analyzed by western blot analysis as described above.
# pAkt2 = assay: Western blot analysis, PANC1 cells; format: cell-based, human; settings: PANC1, 24-h treatment
# Procedure: Cells were seeded into six-well tissue culture plates (Sarstedt) (BaF3 myr-Akt1/2/3: 10^6 cells/well, PANC1: 250.000 cells/well). […] Cell lysis was initiated by addition of 100 μL RIPA buffer (Cell Signaling Technology) per well supplemented with phosphatase and protease inhibitor cocktails (Sigma) followed by incubation on ice for 20 min. Cells were then harvested by scraping (PANC1) or centrifugation (BaF3). Whole cell lysates were cleared by centrifugation at 14,000×g/4 °C for 10 min and transferred into fresh, pre-cooled microcentrifuge tubes. Protein concentrations were determined using the Pierce BCA protein assay (Thermo) as per manufacturer’s instructions. Equal amounts of protein were separated by SDS-PAGE and transferred to Immobilon-FL PVDF membranes (Merck Millipore) using Pierce™ 1-step transfer buffer (Thermo) and the Pierce™ Power Blotter (Thermo). Membranes were washed for 5 min with ddH2O, blocked with Intercept®Blocking Buffer TBS (Li-Cor) for 1 h at room temperature, and then incubated with primary antibodies diluted in Intercept®Blocking Buffer TBS overnight at 4 °C with gentle agitation. On the next day, the membranes were washed three times with TBS-T (50 mM Tris, 150 mM NaCl, 0.05 % Tween 20, pH 7.4) for 5 min before being incubated with secondary antibodies diluted in Intercept®Blocking Buffer TBS for 1 h at room temperature with gentle agitation. Finally, the membranes were washed three times for 5 min with TBS-T and then scanned using an Odyssey®CLx imaging system (Li-Cor).
# Akt2 = Akt2 (Homo sapiens, UniProt P31751); assay: Cellular thermal shift assay (CETSA) in PANC1 cells; format: cell-based; parameters: purchased Thermo Fisher Scientific #PV3184
# Chain of Akt2 (P31751 whole entry): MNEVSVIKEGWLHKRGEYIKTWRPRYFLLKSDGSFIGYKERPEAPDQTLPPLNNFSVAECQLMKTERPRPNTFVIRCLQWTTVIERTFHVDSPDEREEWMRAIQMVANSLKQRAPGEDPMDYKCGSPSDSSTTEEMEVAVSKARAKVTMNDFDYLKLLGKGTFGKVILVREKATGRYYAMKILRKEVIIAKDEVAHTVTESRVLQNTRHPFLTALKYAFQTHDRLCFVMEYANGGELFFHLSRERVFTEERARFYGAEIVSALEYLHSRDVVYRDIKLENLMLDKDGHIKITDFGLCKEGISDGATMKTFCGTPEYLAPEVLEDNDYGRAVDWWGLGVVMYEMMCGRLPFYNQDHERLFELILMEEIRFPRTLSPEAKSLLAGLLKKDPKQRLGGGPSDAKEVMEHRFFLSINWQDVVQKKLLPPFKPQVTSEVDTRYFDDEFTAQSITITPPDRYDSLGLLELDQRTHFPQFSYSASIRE
# Procedure: as §1
# Ba/F3^myr-Akt3 cells = assay: CellTiter-Glo cell viability assay; settings: for cell viability: CTG
# Akt3 = Akt3 (Homo sapiens, UniProt Q9Y243); assay: Cellular thermal shift assay (CETSA) in PANC1 cells; format: cell-based; parameters: purchased ProQinase #1578-0000-1
# Chain of Akt3 (Q9Y243 whole entry): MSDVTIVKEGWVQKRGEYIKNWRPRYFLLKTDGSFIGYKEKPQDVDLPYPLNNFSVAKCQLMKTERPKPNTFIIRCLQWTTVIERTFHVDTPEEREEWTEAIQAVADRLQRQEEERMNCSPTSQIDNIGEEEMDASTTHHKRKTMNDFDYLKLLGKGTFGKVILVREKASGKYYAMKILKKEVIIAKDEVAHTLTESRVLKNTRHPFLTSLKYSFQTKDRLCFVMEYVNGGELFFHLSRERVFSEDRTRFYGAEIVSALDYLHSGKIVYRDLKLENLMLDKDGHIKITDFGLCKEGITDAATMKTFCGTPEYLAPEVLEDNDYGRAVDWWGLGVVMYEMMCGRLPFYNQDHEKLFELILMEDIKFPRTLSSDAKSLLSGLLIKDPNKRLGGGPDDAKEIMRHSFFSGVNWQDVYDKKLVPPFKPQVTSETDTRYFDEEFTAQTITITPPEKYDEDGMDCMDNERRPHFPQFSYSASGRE
# Procedure: as §1
# [1] = CETSA PANC1, 1 µM, temperature 39.9
# [2] = CETSA PANC1, 1 µM, temperature 43.5
# [3] = CETSA PANC1, 1 µM, temperature 48.4
# [4] = CETSA PANC1, 1 µM, temperature 53.8
# [5] = CETSA PANC1, 1 µM, temperature 58.1
# [6] = CETSA PANC1, 1 µM, temperature 61.4
# [7] = CETSA PANC1, 1 µM, temperature 65.6
# [8] = CETSA PANC1, 1 µM, temperature 70.9
# [9] = CETSA PANC1, 1 µM, temperature 76
# [10] = CETSA PANC1, 1 µM, temperature 79.9
# [11] = CETSA PANC1, 2.5 µM, temperature 39.9
# [12] = CETSA PANC1, 2.5 µM, temperature 43.5
# [13] = CETSA PANC1, 2.5 µM, temperature 48.4
# [14] = CETSA PANC1, 2.5 µM, temperature 53.8
# [15] = CETSA PANC1, 2.5 µM, temperature 58.1
# [16] = CETSA PANC1, 2.5 µM, temperature 61.4
# [17] = CETSA PANC1, 2.5 µM, temperature 65.6
# [18] = CETSA PANC1, 2.5 µM, temperature 70.9
# [19] = CETSA PANC1, 2.5 µM, temperature 76
# [20] = CETSA PANC1, 2.5 µM, temperature 79.9
compound,measurement,setting,value
C=CC(=O)Nc1ccc2[nH]c(=O)n(C3CCN(Cc4ccc(-c5ncc(Cc6ccc(N)nc6)cc5-c5ccccc5)cc4)CC3)c2c1 [compound 20],tAkt1 %,Akt1,0.00%
same,pAkt2 level (immunoblot),pAkt2,moderate downregulation of pAkt2
same,tAkt2 %,Akt2; [1],100.00%
same,tAkt2 %,Akt2; [2],81.90%
same,tAkt2 %,Akt2; [3],58.55%
same,tAkt2 %,Akt2; [4],58.55%
same,tAkt2 %,Akt2; [5],42.44%
same,tAkt2 %,Akt2; [6],52.13%
same,tAkt2 %,Akt2; [7],35.55%
same,tAkt2 %,Akt2; [8],6.07%
same,tAkt2 %,Akt2; [9],11.50%
same,tAkt2 %,Akt2; [10],0.00%
same,tAkt2 %,Akt2; [11],100.00%
same,tAkt2 %,Akt2; [12],97.05%
same,tAkt2 %,Akt2; [13],85.02%
same,tAkt2 %,Akt2; [14],75.94%
same,tAkt2 %,Akt2; [15],76.89%
same,tAkt2 %,Akt2; [16],28.89%
same,tAkt2 %,Akt2; [17],35.73%
same,tAkt2 %,Akt2; [18],24.29%
same,tAkt2 %,Akt2; [19],12.62%
same,tAkt2 %,Akt2; [20],0.00%
same,"thermal stabilization of Akt2 (CETSA, in words)","Akt2; PANC1, 2.5 µM",significant stabilization of Akt2 and Akt3
same,cell viability,"Ba/F3^myr-Akt3 cells; myr-Akt3, 0.1 nM, single replicates, 0.0001 µM",100.1 % of control and 113.6 % of control and 88.4 % of control
same,cell viability,"Ba/F3^myr-Akt3 cells; myr-Akt3, 5000 nM, single replicates, 5 µM",49.5 % of control and 56.5 % of control and 73.0 % of control
same,EC50,"Ba/F3^myr-Akt3 cells; Mus musculus, read-out: CTG BaF3myr-Akt3, Mean, mean of replicates",5.05 µM
same,EC50,"Ba/F3^myr-Akt3 cells; Mus musculus, read-out: CTG BaF3myr-Akt3, individual determinations, single replicates",5.1 µM
same,"Log ratio EC50 [Akt] / EC50 [Akt], Akt3 / Akt2","Ba/F3^myr-Akt3 cells; cell viability assay Ba/F3 myr-Akt cells, log units",-0.09
same,EC50,"Ba/F3^myr-Akt3 cells; read-out: CTG BaF3myr-Akt3, individual determinations, single replicates",4.07 µM and 5.52 µM
same,tAkt3 %,Akt3; [1],100.00%
same,tAkt3 %,Akt3; [2],71.95%
same,tAkt3 %,Akt3; [3],46.73%
same,tAkt3 %,Akt3; [4],49.56%
same,tAkt3 %,Akt3; [5],48.14%
same,tAkt3 %,Akt3; [6],35.11%
same,tAkt3 %,Akt3; [7],25.19%
same,tAkt3 %,Akt3; [8],2.44%
same,tAkt3 %,Akt3; [9],2.83%
same,tAkt3 %,Akt3; [10],0.00%
same,tAkt3 %,Akt3; [11],100.00%
same,tAkt3 %,Akt3; [12],103.86%
same,tAkt3 %,Akt3; [13],83.57%
same,tAkt3 %,Akt3; [14],72.46%
same,tAkt3 %,Akt3; [15],73.91%
same,tAkt3 %,Akt3; [16],50.24%
same,tAkt3 %,Akt3; [17],22.85%
same,tAkt3 %,Akt3; [18],8.02%
same,tAkt3 %,Akt3; [19],2.05%
same,tAkt3 %,Akt3; [20],0.00%
same,"thermal stabilization of Akt3 (CETSA, in words)","Akt3; PANC1, 1 µM",slight stabilization of Akt3
same,"thermal stabilization of Akt3 (CETSA, in words)","Akt3; PANC1, 2.5 µM",significant stabilization of Akt2 and Akt3
